Test systems include M19-MEL; DMS-114; KM-20L2; RXF 631; DLD-1; HOP-18; LXFL 529; XF498; BT-549.
What all share (experiment): NCI-60 cell line screen, 48 h

Data on 20 molecules can be found in ChEMBL document CHEMBL1201862, “PubChem BioAssay data set” (2004).

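Interpolation was linear, between the two tested concentrations surrounding the appropriate level; five concentrations were tested over 48 hours in 96-well plates. Here, GI50 denotes the concentration required for 50% inhibition of growth.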 Calls of active or inactive are those of the source. Rule as the data show it: active = GI50 up to about 1.1 µM and inactive = higher.

As for `COc1ccc2ccccc2c1C1OC(=O)c2ccccc21` (stereo unspecified), the GI50 with M19-MEL was > 100 µM (inactive); in the test on DMS-114, 53.3 µM (inactive); with KM-20L2, > 100 µM (inactive); in the test on RXF 631, > 100 µM (inactive); in the test on DLD-1, > 100 µM (inactive); in the test with HOP-18, > 100 µM (inactive).

For the molecule `BrC1=CC=C2NCCCCCC/N=C3\C=CC(Br)=CC=C3NCCCCCC/N=C\2C=C1`, the GI50 with M19-MEL, in the test with DMS-114, in the test on KM-20L2, with RXF 631 and in the test on DLD-1 was > 25.5 µM (inactive) throughout.

Consider `Cc1c(NC(=S)NC(=O)c2ccc([N+](=O)[O-])cc2)c(=O)n(-c2ccccc2)n1C`, for which the GI50 in the test with M19-MEL, with DMS-114, in the test with KM-20L2, in the test on LXFL 529, in the test with DLD-1 and in the test on HOP-18 was > 100 µM (inactive) throughout.

For `CCOc1ccc(/N=C/c2ccc3ccccc3n2)cc1`, the GI50 in the test with XF498, in the test on M19-MEL, with KM-20L2, with LXFL 529, in the test on RXF 631 and in the test on DLD-1 was > 100 µM (inactive) throughout. In the test with HOP-18, the GI50 is > 100 µM (inactive).

Turning to `Nc1nc2c(-c3ccc([N+](=O)[O-])cc3)nnn2c2ccccc12`, the GI50 was 78.5 µM (inactive) in the test on XF498; > 100 µM (inactive) in the test with M19-MEL; > 100 µM (inactive) in the test with LXFL 529; > 100 µM (inactive) in the test with DLD-1; > 100 µM (inactive) with HOP-18.

`N/C=N/S(=O)(=O)c1ccc(NC(=O)COC(=O)c2cccc3c(=O)c4ccccc4[nH]c23)cc1`: the GI50 in the test on XF498, in the test with M19-MEL, in the test on DMS-114, with DLD-1 and with HOP-18 was > 100 µM (inactive) throughout.

On to `COc1ccccc1-n1c(NN)nc2ccc(Br)cc2c1=O`, for which the GI50 in the test with XF498 is 28.5 µM (inactive); in the test with M19-MEL, 42.5 µM (inactive); in the test on DMS-114, 33.6 µM (inactive); in the test with KM-20L2 it was 39.9 µM (inactive); in the test on LXFL 529 it was 24.3 µM (inactive); in the test with RXF 631, 45.3 µM (inactive). Further, the GI50 is 34.8 µM (inactive) in the test on DLD-1 and 5.18 µM (inactive) with HOP-18.

Regarding `C=C(/C=C/C=C(\CO)CCC=C(C)C)[C@H]1CCC2([C@H](CCCO)/C(=C(/C)C=O)CC[C@]2(C)O)[C@H]1O` (stereo partly specified), the GI50 in the test on XF498, in the test with M19-MEL, in the test with DMS-114, in the test on KM-20L2, with LXFL 529 and in the test with DLD-1 was > 100 µM (inactive) each time. In addition, the GI50 with HOP-18 is 40.9 µM (inactive).

In the case of `Cc1cc(NC(=O)NC(=O)c2ccccc2[N+](=O)[O-])ccc1Oc1ncc(Cl)cn1`, the GI50 with XF498 was 0.0671 µM (active); with M19-MEL, 0.316 µM (active); in the test with DMS-114, 0.0927 µM (active); in the test on KM-20L2, 0.0906 µM (active); in the test with LXFL 529, 0.0773 µM (active); in the test on DLD-1, 0.0783 µM (active). Also, the GI50 was 23.4 µM (inactive) in the test with HOP-18 and 29.4 µM (inactive) in the test with BT-549.

In the case of `N#CC1=C(Cl)NC(Cl)=C(C#N)C1c1c(Cl)cccc1Cl`, the GI50 in the test on XF498 was 13.9 µM (inactive); in the test on DMS-114 it was 14.2 µM (inactive); in the test on KM-20L2 it was 45.8 µM (inactive); with LXFL 529 it was 30.8 µM (inactive); in the test with DLD-1, 21.4 µM (inactive); with HOP-18, 30.1 µM (inactive).

On to `O=C1Nc2ccc([N+](=O)[O-])cc2/C1=N/Nc1ccc([N+](=O)[O-])cc1`, for which the GI50 with XF498 is 16.7 µM (inactive); in the test with M19-MEL it was 16.1 µM (inactive); in the test with DMS-114 it was 19.9 µM (inactive); with KM-20L2 it was 17.8 µM (inactive); with LXFL 529 it was 12.4 µM (inactive); in the test on RXF 631, 24.7 µM (inactive). Besides, the GI50 with DLD-1 was 17.8 µM (inactive).

`C[C@]12CCc3nonc3C1CC[C@@H]1C2CC[C@]2(C)C(=O)/C(=N\O)CC12` (stereo partly specified): the GI50 with XF498 is > 100 µM (inactive); in the test on M19-MEL, > 100 µM (inactive); in the test with DMS-114 it was > 100 µM (inactive); with KM-20L2, > 100 µM (inactive); with LXFL 529, 77.4 µM (inactive); in the test on RXF 631, > 100 µM (inactive). Also, the GI50 in the test on DLD-1 and in the test with HOP-18 was > 100 µM (inactive) in each case.

Take `Cc1cccc(NC(=O)/C(=N\NC(C)(C)C)C2NC(=S)NC2=O)c1C` (stereo unspecified): the GI50 in the test on M19-MEL, with KM-20L2, in the test with LXFL 529, in the test on RXF 631 and with DLD-1 was > 100 µM (inactive) in each case.

With `CC1(C)CC23C(=O)N(c4ccccc4)C(Nc4ccccc4)=NC2=CC(C#N)=C(C#N)C3O1` (stereo unspecified), the GI50 in the test with XF498 was > 100 µM (inactive); in the test with M19-MEL, 94.6 µM (inactive); in the test on DMS-114, 42.5 µM (inactive); in the test on KM-20L2, > 100 µM (inactive); with LXFL 529, > 100 µM (inactive); with RXF 631 it was > 100 µM (inactive). In the test with DLD-1, the GI50 was 56.2 µM (inactive).

Take `CCCCOC(=O)C1C2CCC(O2)C1C(=O)OCCCC` (stereo unspecified): the GI50 in the test with XF498 is > 100 µM (inactive); in the test with M19-MEL it was > 61.2 µM (inactive); with DMS-114 it was > 39.4 µM (inactive); in the test on KM-20L2, > 42.3 µM (inactive); with DLD-1 it was > 53.7 µM (inactive); in the test on HOP-18, > 100 µM (inactive).

`CC(=O)Nc1ccc(/C=N\N2C(=O)c3ccccc3C2=O)cc1`: the GI50 in the test on XF498, with M19-MEL, with DMS-114, in the test with KM-20L2, in the test on LXFL 529 and in the test with DLD-1 was > 100 µM (inactive) each time. Moreover, the GI50 with HOP-18 was > 100 µM (inactive).

Take `O=C(O)C1CCc2nnc(-c3ccccc3)n21` (stereo unspecified): the GI50 in the test with M19-MEL, with DMS-114, in the test on KM-20L2, in the test with LXFL 529, with RXF 631 and in the test with DLD-1 was > 100 µM (inactive) in each case. The GI50 in the test with HOP-18 is > 100 µM (inactive).

On to `Cc1cc2c(c3oc(C(O)(CO)C4CO4)cc(=O)c13)C(=O)c1c(O)cccc1C2=O` (stereo unspecified), for which the GI50 in the test on XF498, in the test on M19-MEL, with DMS-114, with KM-20L2, in the test on LXFL 529 and with RXF 631 was < 0.01 µM (active) each time. For the same molecule, the GI50 in the test on DLD-1 is < 0.01 µM (active); in the test on HOP-18, < 0.01 µM (active); in the test with BT-549 it was 0.00296 µM (active).

For `CC1=NN(C(=O)Cc2ccccc2)C(=O)/C1=C/c1c(O)ccc2ccccc12`, the GI50 with XF498 is 1.68 µM (inactive); in the test with M19-MEL, 33 µM (inactive); in the test on DMS-114, 45.9 µM (inactive); in the test on DLD-1, 10 µM (inactive); with HOP-18, 30.3 µM (inactive).

As to `COC(=O)c1[nH]c(=S)[nH]c(=O)c1-c1ccc(Cl)cc1`, the GI50 with XF498, with M19-MEL, with DMS-114, in the test on KM-20L2, in the test on LXFL 529 and in the test with RXF 631 was > 50 µM (inactive) each time. The GI50 in the test with DLD-1 is > 50 µM (inactive).
